Laboratory results reported in ChEMBL document CHEMBL1287741, “Synthesis, antiproliferative activity in cancer cells and theoretical studies of novel 6α,7β-dihydroxyvouacapan-17β-oic acid Mannich base derivatives” (2010).
≈ marks a conversion by molar mass, not a printed value.

Legend:
Type in all cases: functional
[1] = system: 786-0; assay: Growth inhibition of human 786-0 cells after 48 hrs by sulforhodamine B assay; settings: 786-0, 48 h
[2] = system: NCI/ADR-RES; assay: Growth inhibition of human NCI-ADR-RES cells after 48 hrs by sulforhodamine B assay
[3] = system: OVCAR-3; assay: Growth inhibition of human OVCAR-3 cells after 48 hrs by sulforhodamine B assay; settings: OVCAR-3, 48 h
[4] = system: PC-3; assay: Growth inhibition of human PC3 cells after 48 hrs by sulforhodamine B assay; settings: PC-3, 48 h
[5] = system: K562; assay: Growth inhibition of human K562 cells after 48 hrs by sulforhodamine B assay; settings: K562, 48 h
[6] = system: UACC-62; assay: Growth inhibition of human UACC62 cells after 48 hrs by sulforhodamine B assay; settings: UACC-62, 48 h
[7] = system: MCF7; assay: Growth inhibition of human MCF7 cells after 48 hrs by sulforhodamine B assay; settings: MCF7, 48 h
[8] = system: HT-29; assay: Growth inhibition of human HT-29 cells after 48 hrs by sulforhodamine B assay; settings: HT-29, 48 h
[9] = system: NCI-H460; assay: Growth inhibition of human NCI-H460 cells after 48 hrs by sulforhodamine B assay; settings: NCI-H460, 48 h

Row | GI50 [1] [µg/mL] | GI50 [3] [µg/mL] | GI50 [4] [µg/mL] | GI50 [5] [µg/mL] | GI50 [7] [µg/mL] | GI50 [8] [µg/mL] | GI50 [9] [µg/mL] | SMILES | TGI [1] [µg/mL] | GI50 [2] [µg/mL] | TGI [2] [µg/mL] | TGI [3] [µg/mL] | TGI [4] [µg/mL] | TGI [5] [µg/mL] | GI50 [6] [µg/mL] | TGI [6] [µg/mL] | TGI [7] [µg/mL] | TGI [8] [µg/mL] | TGI [9] [µg/mL]
1 | 2.23 (≈ 5.37 µM) | 2.5 (≈ 6.02 µM) | 0.28 (≈ 0.674 µM) | < 0.25 | 0.27 (≈ 0.65 µM) | 0.32 (≈ 0.77 µM) | 1.35 (≈ 3.25 µM) | CCN(CC)Cc1cc2c(o1)C[C@H]1[C@H]3[C@@H](OC(=O)[C@H]23)[C@H](O)[C@H]2C(C)(C)CCC[C@]12C | 2.49 (≈ 5.99 µM) | 3.12 (≈ 7.51 µM) | 8.15 (≈ 19.6 µM) | 5.62 (≈ 13.5 µM) | 0.58 (≈ 1.4 µM) | 3.01 (≈ 7.24 µM) | 0.57 (≈ 1.37 µM) | 2.55 (≈ 6.14 µM) | 1.44 (≈ 3.47 µM) | 1.14 (≈ 2.74 µM) | 3.23 (≈ 7.77 µM)
2 | 2.5 (≈ 5.64 µM) | 2.36 (≈ 5.32 µM) | 2.4 (≈ 5.41 µM) | 2.77 (≈ 6.24 µM) | 2.5 (≈ 5.64 µM) | 2.33 (≈ 5.25 µM) | 2.96 (≈ 6.67 µM) | CCCN(CCC)Cc1cc2c(o1)C[C@H]1[C@H]3[C@@H](OC(=O)[C@H]23)[C@H](O)[C@H]2C(C)(C)CCC[C@]12C | 3.72 (≈ 8.39 µM) | 2.64 (≈ 5.95 µM) | 5.53 (≈ 12.5 µM) | 3.9 (≈ 8.79 µM) | 3.83 (≈ 8.63 µM) | 8.87 (≈ 20 µM) | 2.76 (≈ 6.22 µM) | 4.96 (≈ 11.2 µM) | 5.31 (≈ 12 µM) | 3.35 (≈ 7.55 µM) | 6.01 (≈ 13.5 µM)
3 | 2.5 (≈ 5.3 µM) | 0.28 (≈ 0.594 µM) | 0.98 (≈ 2.08 µM) | 5.06 (≈ 10.7 µM) | 0.69 (≈ 1.46 µM) | 0.67 (≈ 1.42 µM) | 0.29 (≈ 0.615 µM) | CC(C)CN(Cc1cc2c(o1)C[C@H]1[C@H]3[C@@H](OC(=O)[C@H]23)[C@H](O)[C@H]2C(C)(C)CCC[C@]12C)CC(C)C | 16.6 (≈ 35.3 µM) | 0.39 (≈ 0.827 µM) | 5.39 (≈ 11.4 µM) | 1.86 (≈ 3.94 µM) | 4.06 (≈ 8.61 µM) | 86.1 (≈ 182 µM) | 0.86 (≈ 1.82 µM) | 5.27 (≈ 11.2 µM) | 7.4 (≈ 15.7 µM) | 6.91 (≈ 14.6 µM) | 3.2 (≈ 6.78 µM)
4 | 0.76 (≈ 1.84 µM) | 2.5 (≈ 6.05 µM) | 0.34 (≈ 0.822 µM) | 1.58 (≈ 3.82 µM) | 1.81 (≈ 4.38 µM) | 0.3 (≈ 0.725 µM) | 2.5 (≈ 6.05 µM) | CC1(C)CCC[C@]2(C)[C@H]3Cc4oc(CN5CCCC5)cc4[C@H]4C(=O)O[C@@H]([C@H](O)[C@@H]12)[C@@H]43 | 3.98 (≈ 9.62 µM) | 2.5 (≈ 6.05 µM) | 6.18 (≈ 14.9 µM) | 5.28 (≈ 12.8 µM) | 1.69 (≈ 4.09 µM) | 23.2 (≈ 56.1 µM) | 0.78 (≈ 1.89 µM) | 3.05 (≈ 7.38 µM) | 3.86 (≈ 9.33 µM) | 1.61 (≈ 3.89 µM) | 4.94 (≈ 11.9 µM)
5 | 2.31 (≈ 5.4 µM) | 2.37 (≈ 5.54 µM) | 0.27 (≈ 0.631 µM) | 0.32 (≈ 0.748 µM) | 0.88 (≈ 2.06 µM) | 1.76 (≈ 4.12 µM) | 2.5 (≈ 5.85 µM) | CC1(C)CCC[C@]2(C)[C@H]3Cc4oc(CN5CCCCC5)cc4[C@H]4C(=O)O[C@@H]([C@H](O)[C@@H]12)[C@@H]43 | 4.11 (≈ 9.61 µM) | 2.65 (≈ 6.2 µM) | 7.1 (≈ 16.6 µM) | 4.36 (≈ 10.2 µM) | 0.78 (≈ 1.82 µM) | 4.55 (≈ 10.6 µM) | 2.44 (≈ 5.71 µM) | 3.96 (≈ 9.26 µM) | 3.82 (≈ 8.93 µM) | 2.23 (≈ 5.22 µM) | 4.64 (≈ 10.9 µM)
6 | 2.37 (≈ 5.52 µM) | 2.6 (≈ 6.05 µM) | 0.27 (≈ 0.629 µM) | 2.39 (≈ 5.56 µM) | 2.45 (≈ 5.7 µM) | 1.68 (≈ 3.91 µM) | 2.69 (≈ 6.26 µM) | CC1(C)CCC[C@]2(C)[C@H]3Cc4oc(CN5CCOCC5)cc4[C@H]4C(=O)O[C@@H]([C@H](O)[C@@H]12)[C@@H]43 | 4.04 (≈ 9.41 µM) | 2.73 (≈ 6.36 µM) | 6.34 (≈ 14.8 µM) | 8.05 (≈ 18.7 µM) | 1.27 (≈ 2.96 µM) | 8.24 (≈ 19.2 µM) | 2.5 (≈ 5.82 µM) | 4.36 (≈ 10.1 µM) | 4.77 (≈ 11.1 µM) | 3.68 (≈ 8.57 µM) | 4.05 (≈ 9.43 µM)
7 | 8.87 (≈ 26.8 µM) | 0.52 (≈ 1.57 µM) | 30.8 (≈ 93.3 µM) | 2.08 (≈ 6.29 µM) | 27.7 (≈ 83.7 µM) | 52.5 (≈ 159 µM) | 2.53 (≈ 7.66 µM) | CC1(C)CCC[C@@]2(C)C1[C@@H](O)[C@@H]1OC(=O)[C@@H]3c4ccoc4C[C@H]2[C@@H]13 (some centres undefined) | 37.3 (≈ 113 µM) | 0.35 (≈ 1.06 µM) | > 250 | 8.82 (≈ 26.7 µM) | 91.9 (≈ 278 µM) | > 250 | 5.19 (≈ 15.7 µM) | 30 (≈ 90.8 µM) | 214 (≈ 647 µM) | > 250 | 12.4 (≈ 37.7 µM)
8 | 0.04 (≈ 0.0736 µM) | 0.08 (≈ 0.147 µM) | 0.28 (≈ 0.515 µM) | 0.4 (≈ 0.736 µM) | 0.03 (≈ 0.0552 µM) | 0.07 (≈ 0.129 µM) | < 0.03 | COc1cccc2c1C(=O)c1c(O)c3c(c(O)c1C2=O)C[C@@](O)(C(=O)CO)C[C@@H]3O[C@H]1C[C@H](N)[C@H](O)[C@H](C)O1 [DOXORUBICIN] | 2.67 (≈ 4.91 µM) | 0.33 (≈ 0.607 µM) | 6.6 (≈ 12.1 µM) | 2.95 (≈ 5.43 µM) | 5.85 (≈ 10.8 µM) | 20.5 (≈ 37.7 µM) | 0.09 (≈ 0.166 µM) | 0.33 (≈ 0.607 µM) | 3.3 (≈ 6.07 µM) | 3.9 (≈ 7.18 µM) | 0.9 (≈ 1.66 µM)
